Legend:
[1] = tested on: murine L1210 leukemia cell; assay: Antitumor effect on murine L1210 leukemia cell (increase in life-span of inoculated mice); format: in vivo, murine; male CDF1 mice; conditions: Table 5 test lot; for ILSmax (maximum percent increase in life-span) / ILS50 (dose which shows 50% of the ILS value by 5 administrations) / dose corresponding to ILSmax: L1210, i.p. once a day for 5 days; for ILSmax (maximum percent increase in life-span): 30 days observation; for ILS50 (dose which shows 50% of the ILS value by 5 administrations): linear regression; for TI (therapeutic index, LD50 value/ILS50 value): L1210
Protocol: (§1) Murine L1210 leukemia cells (1×10^5 cells) were inoculated peritoneally into six-week-old male CDF1 mice on day 0. From the next day after the inoculation, a drug (the compound of the invention or a compound for comparison) was administered peritoneally once a day for 5 days. After 30 days of observation, the percent increase in life-span (ILS) was calculated as follows: […]
(§2) T: mean survival days of the drug-treated group
(§3) C: mean survival days of control group
(§4) In these tables, ILSmax means maximum ILS value (%), and corresponding dose (mg/kg) is Shown in parenthesis.

[2] = 50% lethal dose by single peritoneal administration, obtained at the time of the dose setting; format: in vivo, CDF1 mice
From the text: as §4

[3] = tested on: cisplatin-resistant murine L1210 leukemia cell (L1210/DDP); assay: Antitumor effect on cisplatin-resistant murine L1210 leukemia cell (L1210/DDP); format: in vivo, murine; male CDF1 mice; conditions: Table 7 test lot; for ILSmax (maximum percent increase in life-span) / dose corresponding to ILSmax / ILS50 (dose which shows 50% of the ILS value by 5 administrations): i.p. once a day for 5 days; for ILSmax (maximum percent increase in life-span): 30 days observation; for ILS50 (dose which shows 50% of the ILS value by 5 administrations): linear regression
Protocol: as §1, §2, §3
In these tables, ILSmax means maximum ILS value (%), and corresponding dose (mg/kg) is Shown in parenthesis. In this test, cisplatin and carboplatin were respectively tested in each test lot for accurate comparison.
Antitumor effect on cisplatin-resistant murine L1210 leukemia cell (L1210/DDP):
The test of Test Example 1 was repeated except that cisplatin-resistant murine L1210 leukemia cell (L1210/DDP) was used instead of murine L1210 leukemia cell.

[4] = tested on: murine P388 leukemia cell; assay: Antitumor effect on murine P388 leukemia cell; format: in vivo, murine; male CDF1 mice; conditions: Table 9 test lot; for ILSmax (maximum percent increase in life-span) / ILS50 (dose which shows 50% of the ILS value by 5 administrations) / dose corresponding to ILSmax: P388, i.p. once a day for 5 days; for ILSmax (maximum percent increase in life-span): 30 days observation; for ILS50 (dose which shows 50% of the ILS value by 5 administrations): linear regression; for TI (therapeutic index, LD50 value/ILS50 value): P388
Protocol: as §1, §2, §3, §4
Antitumor effect on murine P388 leukemia cell:
The test of Test Example 1 was repeated except that 1×10^6 of murine P388 leukemia cells were used instead of 1×10^5 of murine L1210 leukemia cells.

Row | SMILES | ILSmax (maximum percent increase in life-span) [1] | ILS50 (dose which shows 50% of the ILS value by 5 administrations) [1] | dose corresponding to ILSmax [1] | TI (therapeutic index, LD50 value/ILS50 value) [1] | LD50 (50% lethal dose) [2] | TI (therapeutic index, LD50 value/ILS50 value) [3] | ILSmax (maximum percent increase in life-span) [3] | dose corresponding to ILSmax [3] | ILS50 (dose which shows 50% of the ILS value by 5 administrations) [3] | ILSmax (maximum percent increase in life-span) [4] | ILS50 (dose which shows 50% of the ILS value by 5 administrations) [4] | dose corresponding to ILSmax [4] | TI (therapeutic index, LD50 value/ILS50 value) [4]
1 | CCCO[NH][Pt]([NH2])([Cl])[Cl] [Compound No. 8, cis-dichloroammine (O-propylhydroxylamine)platinum(II)] | > 131.3% | 0.8 mg/kg | 4.0 mg/kg | 13.8 | 11.0 mg/kg | > 22.0 | > 175.5% | 1.0 mg/kg | < 0.5 mg/kg | 101.9% | < 0.5 mg/kg | 2.0 mg/kg | > 22.0
2 | N.NOC1CCCCC1.[Cl][Pt][Cl] [Compound No. 9, cis-dichloroammine (O-cyclohexylhydroxylamine)platinum(II)] | 108.8% | 1.3 mg/kg | 4.0 mg/kg | 17.0 | 22.1 mg/kg | > 22.1 | > 206.1% | 1.0 mg/kg | < 1.0 mg/kg | 114.4% | < 1.0 mg/kg | 4.0 mg/kg | > 22.1

Source: patent US5498780A, “Platinum complex and malignant tumor treating drug containing the same” (SS Pharmaceutical Co., Ltd., priority 1994, dated 1996)
